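Method: 48-hour compound exposure of cells in 96-well plates, five concentrations, linear interpolation of endpoints. The concentration for 50% growth inhibition is given as GI50.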 Active and inactive are the calls of the source. Rule as the data show it: active = GI50 up to about 1.1 µM and inactive = higher.
Assays:
Assay in all cases: growth of human tumour cells (NCI), 48 h
SF-268 = test system: SF-268
SN12C = test system: SN12C
M14 = test system: M14
IGROV-1 = test system: IGROV-1
SK-MEL-2 = test system: SK-MEL-2
HCC 2998 = test system: HCC 2998
CAKI-1 = test system: CAKI-1
KM12 = test system: KM12
SK-MEL-5 = test system: SK-MEL-5
SF-539 = test system: SF-539
UACC-62 = test system: UACC-62
NCI-H23 = test system: NCI-H23
HCT-116 = test system: HCT-116
U-251 = test system: U-251
ACHN = test system: ACHN
HL-60 = test system: HL-60
A549 = test system: A549
NCI-H460 = test system: NCI-H460
RXF 393 = test system: RXF 393

Measured: GI50

Cc1ccc(/N=N/C(C(=O)c2ccccc2)C(=O)c2ccccc2)cc1
inactive: SF-268 29.8 µM | SN12C 18.7 µM | M14 15.7 µM | IGROV-1 31.2 µM | SK-MEL-2 19.5 µM | HCC 2998 38.3 µM | CAKI-1 27.4 µM | KM12 36.1 µM | SK-MEL-5 17.7 µM | SF-539 22.4 µM | UACC-62 16.4 µM | NCI-H23 20.5 µM | HCT-116 14.9 µM | U-251 18 µM | ACHN 26.6 µM | HL-60 9.08 µM | A549 27.3 µM

Cc1cc(=O)oc2c1cc1ccc3cccc4ccc2c1c34
inactive: SF-268 > 100 µM | SN12C > 100 µM | M14 > 100 µM | IGROV-1 > 100 µM | SK-MEL-2 > 100 µM | CAKI-1 > 100 µM | SK-MEL-5 > 100 µM | SF-539 58.6 µM | UACC-62 > 100 µM | NCI-H23 > 100 µM | U-251 41.2 µM | NCI-H460 89.3 µM | ACHN 46.7 µM | HL-60 > 100 µM

COC1=CC(=O)C2(C=C1OC)OC[C@H]1Oc3c(ccc4c3C=CC(C)(C)O4)C(=O)[C@H]12 (some centres undefined)
inactive: M14 41.7 µM | IGROV-1 40.3 µM | SK-MEL-2 45.2 µM | HCC 2998 86.5 µM | KM12 40.3 µM | SF-539 34.5 µM | UACC-62 47.1 µM | NCI-H23 23.7 µM | RXF 393 30.2 µM | HCT-116 28.4 µM | U-251 56.2 µM | NCI-H460 49.2 µM | ACHN 44.8 µM | HL-60 15.6 µM | A549 42.5 µM

COP(=O)(OC)C(N)Cc1c[nH]c2ccccc12 (centres undefined)
inactive: SN12C > 100 µM | M14 > 100 µM | IGROV-1 > 100 µM | SK-MEL-2 > 100 µM | HCC 2998 > 100 µM | CAKI-1 > 100 µM | SK-MEL-5 > 100 µM | NCI-H23 > 100 µM | HCT-116 > 100 µM | U-251 > 100 µM | NCI-H460 > 100 µM | ACHN > 100 µM | A549 > 100 µM

O=C1CCC(NC(=O)Cc2ccc(O)cc2)C(=O)N1 (centres undefined)
inactive: SF-268 > 2500 µM | SN12C > 2500 µM | M14 > 2500 µM | IGROV-1 > 2500 µM | CAKI-1 > 2500 µM | KM12 > 2500 µM | SK-MEL-5 > 2500 µM | UACC-62 > 2500 µM | NCI-H23 > 2500 µM | HCT-116 > 2500 µM | U-251 > 2500 µM | NCI-H460 > 2500 µM | ACHN > 2500 µM | A549 > 2500 µM

N#Cc1c2ccc([N+](=O)[O-])cc2c(=O)n2c1sc1ccc(C(F)(F)F)cc12
inactive: SF-268 > 100 µM | SN12C > 100 µM | M14 > 100 µM | IGROV-1 > 100 µM | CAKI-1 > 100 µM | KM12 > 100 µM | SK-MEL-5 > 100 µM | SF-539 > 100 µM | NCI-H23 > 100 µM | RXF 393 > 100 µM | HCT-116 > 100 µM | U-251 > 100 µM | NCI-H460 > 100 µM | ACHN > 100 µM | A549 > 100 µM

CC/C=C\C/C=C\C/C=C\CCCCCCCC(=O)OC [METHYL LINOLENATE]
inactive: SF-268 > 100 µM | SN12C > 100 µM | IGROV-1 > 100 µM | SK-MEL-2 > 100 µM | HCC 2998 > 100 µM | CAKI-1 > 100 µM | KM12 > 100 µM | SK-MEL-5 > 100 µM | SF-539 > 100 µM | UACC-62 > 100 µM | NCI-H23 > 100 µM | HCT-116 91.6 µM | U-251 > 100 µM | NCI-H460 > 100 µM | HL-60 22.8 µM | A549 > 100 µM

From ChEMBL document CHEMBL1201862, “PubChem BioAssay data set” (2004)
